Data: PMC6882824, “Engineering of chimeric peptides as antagonists for the G protein-coupled receptor, RXFP4” (Scientific Reports, 2019)
“Also recorded” adds a separate entry of the source. Like-named read-outs stand apart in the source and are kept apart here. Bridge positions count the residues as written; N and C are the ends. Peptide text beside a SMILES is read from it. I, II: the chains in the order shown.

Assays:
RXFP3 [1] = details: HEK-293s cells expressing rat and human RXFP3; cited from earlier work
RXFP3 [2] = target: T1, RXFP3 (Homo sapiens, UniProt Q9NSD7); assay: Competition binding in CHO-K1-RXFP3 cells (Eu-H3B1-22R)
T1 construct: expressed in transfected cells; host or cells: CHO-K1 (ATCC), stably transfected
T1 sequence (Q9NSD7 1-469): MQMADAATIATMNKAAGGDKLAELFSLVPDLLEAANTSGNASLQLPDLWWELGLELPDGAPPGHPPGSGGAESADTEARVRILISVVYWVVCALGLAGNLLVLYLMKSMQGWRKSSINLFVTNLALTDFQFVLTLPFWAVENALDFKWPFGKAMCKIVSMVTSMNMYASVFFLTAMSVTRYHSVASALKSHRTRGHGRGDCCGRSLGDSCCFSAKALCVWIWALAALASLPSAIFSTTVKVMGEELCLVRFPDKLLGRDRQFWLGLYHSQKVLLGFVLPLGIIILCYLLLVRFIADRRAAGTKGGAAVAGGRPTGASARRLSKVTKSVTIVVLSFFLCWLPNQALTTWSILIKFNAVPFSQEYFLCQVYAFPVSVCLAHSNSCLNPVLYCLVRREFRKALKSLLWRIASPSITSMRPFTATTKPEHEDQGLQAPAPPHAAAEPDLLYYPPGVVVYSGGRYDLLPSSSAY
Method: (§1) Chinese hamster ovary CHO-K1 cells (sourced from American Type Culture Collection (ATCC), Maryland, USA) stably transfected with RXFP3[33] or RXFP4[9] were plated out onto precoated poly-L-lysine 96-well view plates at a density of 50 000 cells per well. Medium was aspirated off and the cells were washed with phosphate-buffered saline (PBS) before competition binding assays were performed with 5 nM Eu-H3B1–22R[34] (RXFP3 ligand) or 5 nM Eu-DTPA-mINSL5[9] (RXFP4 ligand) as previously described. Competition binding curves were performed in triplicate and each experiment was performed independently at least three times. Fluorescent measurements were carried out on a BMG POLARstar plate reader (BMG Labtech, Melbourne, Australia. Pooled data are presented as mean ± S.E of specific binding and are fitted using one-site binding curve in GraphPad Prism version 8 (GraphPad Inc., San Diego, USA). Statistical analyses were conducted using one-way analysis of variance with uncorrected Fisher’s least significant difference (LSD) post-hoc analysis in GraphPad Prism version 8.

RXFP3 [3] = target: T1, RXFP3; assay: cAMP agonist assay (inhibition of forskolin-induced cAMP, pCRE β-galactosidase reporter) in CHO-K1-RXFP3 cells; assay type: cell-based; details: CHO-K1-RXFP3 cells, inhibition of 5 µM forskolin-induced cAMP, 6 hours; mean ± SEM, n in cell
Method: (§2) The peptides were tested for their ability to inhibit forskolin induced cAMP activity in CHO-K1-RXFP3 or CHO-K1-RXFP4 cells transfected with a pCRE (cAMP Response Element) β-galactosidase reporter plasmid as previously described[9],[34]. For agonist assays cells were stimulated with forskolin (5 µM for RXFP3, 1 µM for RXFP4) plus or minus increasing concentrations of each peptide for 6 hours. For antagonist assays cells were stimulated with forskolin as in agonist assays plus increasing concentrations of each peptide for 10 minutes followed by stimulation with agonist at an ~EC80 concentration for a further 6 hours (10 nM Analogue 2 for RXFP3 and 16.6 nM Analogue 13 for RXFP4). Each peptide was tested in triplicate and each experiment was performed independently at least three times. Agonist data was expressed as the % Forskolin activity whereby 100% was defined as Forskolin alone and 0% as maximum agonist stimulation (1 µM Analogue 2 for RXFP3 and 1 µM Analogue 13 for RXFP4). […] Data were analysed and plotted using GraphPad PRISM 8 and are expressed as the mean ± SEM of the pooled data. Statistical analysis was conducted using one-way ANOVA with Uncorrected Fisher’s LSD post-hoc analysis in GraphPad Prism version 8.

RXFP4 [4] = target: T2, RXFP4 (Homo sapiens, UniProt Q8TDU9); assay: cAMP antagonist assay against 16.6 nM analogue 13 in CHO-K1-RXFP4 cells; assay type: cell-based; set-up: expressed in transfected cells; host or cells: CHO-K1 (ATCC), stably transfected; details: for Emax: SEM, read-out: RXFP4 Emax (antagonist efficacy)
T2 sequence (Q8TDU9 whole entry): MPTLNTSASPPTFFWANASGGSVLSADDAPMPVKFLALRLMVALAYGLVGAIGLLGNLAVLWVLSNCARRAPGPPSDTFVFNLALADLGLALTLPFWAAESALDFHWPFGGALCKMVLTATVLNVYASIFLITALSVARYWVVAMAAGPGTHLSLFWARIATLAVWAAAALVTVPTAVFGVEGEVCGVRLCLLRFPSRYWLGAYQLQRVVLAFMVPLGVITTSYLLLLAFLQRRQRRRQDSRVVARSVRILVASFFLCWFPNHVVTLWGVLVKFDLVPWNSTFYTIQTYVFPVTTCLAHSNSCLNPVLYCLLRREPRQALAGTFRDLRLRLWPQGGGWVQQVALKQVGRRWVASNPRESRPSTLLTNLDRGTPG
Method: as §2

RXFP3 [5] = details: SK-N-MC/CRE-β-gal cells expressing human RXFP3; cited from earlier work
Text: Here we have chemically synthesized and pharmacologically characterized ΔR3/I5 for binding and cAMP potency in CHO cells stably expressing RXFP3 (CHO-RXFP3) or RXFP4 (CHO-RXFP4).

RXFP4 [6] = target: T2, RXFP4; assay: cAMP agonist assay (inhibition of forskolin-induced cAMP, pCRE β-galactosidase reporter) in CHO-K1-RXFP4 cells; assay type: cell-based; set-up: expressed in transfected cells; host or cells: CHO-K1 (ATCC), stably transfected; details: CHO-K1-RXFP4 cells, inhibition of 1 µM forskolin-induced cAMP, 6 hours; mean ± SEM, n in cell
Method: as §2

RXFP4 [7] = target: T2, RXFP4; set-up: expressed in transfected cells; method as in PMID 17606621; details: SK-N-MC/CRE-β-gal cells expressing human RXFP4; cited from earlier work
RXFP3 [8] = target: T1, RXFP3; details: cited from earlier work
RXFP3 [9] = target: T1, RXFP3; assay: cAMP antagonist assay against 10 nM analogue 2 in CHO-K1-RXFP3 cells; assay type: cell-based; details: for Emax: SEM, read-out: RXFP3 Emax (antagonist efficacy)
Method: as §2

RXFP3 [10] = target: T1, RXFP3; details: CRE-reporter gene assay; cited from earlier work
RXFP4 [11] = target: T2, RXFP4; assay: Competition binding in CHO-K1-RXFP4 cells (Eu-DTPA-mINSL5); set-up: expressed in transfected cells; host or cells: CHO-K1 (ATCC), stably transfected
Method: as §1

Question: For `CC[C@H](C)[C@@H]1NC(=O)[C@H](Cc2ccccc2)NC(=O)[C@H](CCC(=O)O)NC(=O)[C@H](CCCNC(=N)N)NC(=O)CNC(=O)[C@@H](NC(=O)[C@H](CC(C)C)NC(=O)[C@H](CCCNC(=N)N)NC(=O)[C@@H](NC(=O)CNC(=O)[C@H](Cc2ccc(O)cc2)NC(=O)[C@@H]2CCCN2C(=O)[C@H](C)NC(=O)[C@H](C)NC(=O)[C@@H](N)CCCNC(=N)N)C(C)C)CSSC[C@@H]2NC(=O)[C@@H](NC(=O)[C@H](CC(C)C)NC(=O)[C@@H](NC(=O)[C@H](CCC(N)=O)NC(=O)[C@H](CC(C)C)NC(=O)[C@H](CC(=O)O)NC(=O)[C@@H]3CCC(=O)N3)[C@@H](C)O)CSSC[C@H](NC(=O)CNC(=O)[C@H](CC(=O)O)NC(=O)[C@H]([C@@H](C)O)NC2=O)C(=O)N[C@@H](CO)C(=O)N[C@@H](CCSC)C(=O)N[C@@H]([C@@H](C)O)C(=O)N[C@@H](CC(=O)O)C(=O)N[C@@H](CC(C)C)C(=O)N[C@@H](CO)C(=O)N[C@@H](C)C(=O)N[C@@H](CC(C)C)C(=O)N[C@H](C(=O)O)CSSC[C@@H](C(=O)N[C@@H](CCCNC(=N)N)C(=O)O)NC(=O)[C@H]([C@@H](C)O)NC(=O)[C@H](Cc2ccccc2)NC(=O)[C@H]([C@@H](C)CC)NC(=O)[C@H](C(C)C)NC(=O)[C@H](C)NC(=O)[C@H](CCCNC(=N)N)NC1=O` [ΔR3/I5, reference compound], which “Agonism in [35S]-GTPγS binding, cAMP activation and dynamic mass redistribution” value (RXFP3 [1]) is on record?
Answer: partial agonist

Question: And the Ki (RXFP3 [2]; SEM)?
Answer: 9.77 nM

Question: What about the “RXFP3 Activity pEC50” value (RXFP3 [3]) of the same compound?
Answer: unable to activate RXFP3; also recorded: No activity (3)

Question: And the IC50 (RXFP4 [4])?
Answer: 17.4 nM

Question: What about the Emax (RXFP4 [4]) of the same compound?
Answer: 36.7 ± 7.4%

Question: What about the “Agonist activity at RXFP3 (original report)” value (RXFP3 [5]) of the same compound?
Answer: no agonist activity

Question: And the “RXFP4 Activity pEC50” value (RXFP4 [6])?
Answer: Weak partial agonist (5)

Question: What about the “Agonist activity at RXFP4 (original report)” value (RXFP4 [7]) of the same compound?
Answer: no agonist activity

Question: And the “Agonism of p38MAPK, ERK1/2 and cAMP signalling at RXFP3” value (RXFP3 [8])?
Answer: weak partial agonist

Question: And the IC50 (RXFP3 [9])?
Answer: 117 nM

Question: And the Emax (RXFP3 [9])?
Answer: 100 ± 3.8%

Question: And the “Agonist activity in CHO-RXFP3 cells” value (RXFP3 [10])?
Answer: no agonist activity

Question: And the Ki (RXFP4 [11]; SEM)?
Answer: 4.57 nM

Question: With `CC[C@H](C)[C@@H]1NC(=O)[C@H](Cc2ccccc2)NC(=O)[C@H](CCC(=O)O)NC(=O)[C@H](CC(C)C)NC(=O)CNC(=O)[C@@H](NC(=O)[C@H](CC(C)C)NC(=O)[C@H](CCCNC(=N)N)NC(=O)[C@@H](NC(=O)CNC(=O)[C@H](Cc2ccc(O)cc2)NC(=O)[C@@H]2CCCN2C(=O)[C@H](C)NC(=O)[C@H](C)NC(=O)[C@@H](N)CCCNC(=N)N)C(C)C)CSSC[C@H](N)C(=O)N[C@@H]([C@@H](C)O)C(=O)N[C@@H](CC(=O)O)C(=O)NCC(=O)N[C@@H](C)C(=O)N[C@@H](CO)C(=O)N[C@@H](CCSC)C(=O)N[C@@H](CCCCN)C(=O)N[C@@H](CC(=O)O)C(=O)N[C@@H](CC(C)C)C(=O)N[C@@H](CO)C(=O)N[C@@H](C)C(=O)N[C@@H](CC(C)C)C(=O)N[C@H](C(=O)O)CSSC[C@@H](C(=O)N[C@@H](CCCNC(=N)N)C(=O)O)NC(=O)[C@H]([C@@H](C)O)NC(=O)[C@H](Cc2ccccc2)NC(=O)[C@H]([C@@H](C)CC)NC(=O)[C@H](C(C)C)NC(=O)[C@H](C)NC(=O)[C@H](CCCNC(=N)N)NC1=O` [Analogue 18] (I: H-RAAPYGVRLCGLEFIRAVIFTCR-OH / II: H-CTDGASMKDLSALC-OH; disulfide I:10-II:1, I:22-II:14) as the compound, how does the Ki (RXFP3 [2]; CHO-K1 cells stably transfected with RXFP3, competition with 5 nM Eu-H3B1-22R, read-out: RXFP3 Binding Ki) read?
Answer: 25.7 nM

Question: What about the “RXFP3 Activity pEC50” value (RXFP3 [3]) of the same compound?
Answer: No activity (3)

Question: And the IC50 (RXFP4 [4]; CHO-K1-RXFP4 cells, block of 16.6 nM analogue 13, read-out: RXFP4 Antagonist potency IC50)?
Answer: 214 nM

Question: And the Emax (RXFP4 [4])?
Answer: 56.2 ± 11.8%

Question: What about the “RXFP4 Activity pEC50” value (RXFP4 [6]) of the same compound?
Answer: Weak partial agonist (3)

Question: What about the IC50 (RXFP3 [9]; CHO-K1-RXFP3 cells, peptide 10 minutes, then 10 nM analogue 2 for 6 hours, 5 µM forskolin, mean ± SEM, read-out: RXFP3 Antagonist potency pIC50 (converted)) of the same compound?
Answer: > 10000 nM

Question: And the Emax (RXFP3 [9])?
Answer: 47 ± 7.3%

Question: What about the Ki (RXFP4 [11]; CHO-K1 cells stably transfected with RXFP4, competition with 5 nM Eu-DTPA-mINSL5, read-out: RXFP4 Binding Ki) of the same compound?
Answer: 14.8 nM
